Counter-ions that a name gives are not always drawn.
Experiment: Antimicrobial activity assay: whole-cell broth microdilution MIC (CLSI M7-A7)
Assay type: cell-based
Settings: for at least one strain of one organism listed, serial two-fold dilutions 0.064 to 64 μg/ml, in the presence of 20 uM human apo-Transferrin, tested in at least one exemplified salt or free base form, read-out: MIC (minimum inhibitory concentration)
Method: Antimicrobial Activity Assay
Whole-cell antimicrobial activity was determined by broth microdilution using the Clinical and Laboratory Standards Institute (CLSI) recommended procedure, Document M7-A7, “Methods for Dilution Susceptibility Tests for Bacteria that Grow Aerobically”. In some cases, broth microdilution MICs were determined using IsoSensitest broth (Oxoid) in place of CLSI recommended cation adjusted Mueller-Hinton broth. The compounds were tested in serial two-fold dilutions ranging from 0.064 to 64 μg/ml in the presence of 20 uM human apo-Transferrin (Sigma T-1147).
Compounds were evaluated against Gram-negative organisms selected from Escherichia coli, Pseudomonas aeruginosa, Proteus mirabilis, Enterobacter cloacae, Enterobacter aerogenes, Klebsiella pneumoniae, Stenotrophomonas maltophilia, Acinetobacter baumanii, Serratia marascens, Citrobacter freundii, and Klebsiella oxytoca.
The minimum inhibitory concentration (MIC) was determined as the lowest concentration of compound that inhibited visible growth. A mirror reader was used to assist in determining the MIC endpoint.
Each of the listed Examples 1 to 56 and 59 to 61 identified in the present application, were tested in at least one exemplified salt or free base form.

Structure (SMILES): Cn1cc(O)c(=O)c2cc(C[N+]3(CC4=C(C(=O)[O-])N5C(=O)[C@@H](NC(=O)/C(=N\O[C@@H](CC(=O)O)C(=O)O)c6csc(N)n6)[C@H]5SC4)CCCC3)ccc21 [Example 5, (6R,7R)-7-((Z)-2-(2-aminothiazol-4-yl)-2-(((S)-1,2-dicarboxyethoxy)imino)acetamido)-3-((1-((3-hydroxy-1-methyl-4-oxo-1,4-dihydroquinolin-6-yl)methyl)pyrrolidin-1-ium-1-yl)methyl)-8-oxo-5-thia-1-azabicyclo[4.2.0]oct-2-ene-2-carboxylate, 3 Sodium salt]
- MIC: ≤ 8 mg/L

From patent publication US9340556B2, “Antibacterial compounds” (GLAXO GROUP LIMITED, priority 2011, dated 2016)
